Results taken from ChEMBL document CHEMBL1137536, “Dipeptidyl aspartyl fluoromethylketones as potent caspase inhibitors: peptidomimetic replacement of the P(2) amino acid by 2-aminoaryl acids and other non-natural amino acids” (Bioorg Med Chem Lett, 2007).
Blank lines part the entries; values can stand above or below the compound they belong to.

Legend:
[1] = system: HeLa; assay: Inhibition of TNF-alpha-induced apoptosis in HeLa cells assessed as cell protection; settings: Homo sapiens
[2] = target: T1, Caspase-9 (Homo sapiens, UniProt P55211); assay: Inhibition of human caspase 9
T1 sequence (P55211 whole entry): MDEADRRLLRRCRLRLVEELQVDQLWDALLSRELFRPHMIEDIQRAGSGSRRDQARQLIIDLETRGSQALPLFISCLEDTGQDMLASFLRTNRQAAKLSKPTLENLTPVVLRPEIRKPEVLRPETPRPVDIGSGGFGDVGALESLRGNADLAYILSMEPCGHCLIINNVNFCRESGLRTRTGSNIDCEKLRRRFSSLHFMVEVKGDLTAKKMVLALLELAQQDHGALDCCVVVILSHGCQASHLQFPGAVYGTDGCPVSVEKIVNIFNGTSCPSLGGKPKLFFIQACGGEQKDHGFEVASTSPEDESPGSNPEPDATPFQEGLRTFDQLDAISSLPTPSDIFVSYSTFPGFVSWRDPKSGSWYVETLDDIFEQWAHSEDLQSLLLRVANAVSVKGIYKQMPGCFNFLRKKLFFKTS

[3] = target: T2, Caspase-1 (Homo sapiens, UniProt P29466); assay: Inhibition of human caspase 1
T2 sequence (P29466 whole entry): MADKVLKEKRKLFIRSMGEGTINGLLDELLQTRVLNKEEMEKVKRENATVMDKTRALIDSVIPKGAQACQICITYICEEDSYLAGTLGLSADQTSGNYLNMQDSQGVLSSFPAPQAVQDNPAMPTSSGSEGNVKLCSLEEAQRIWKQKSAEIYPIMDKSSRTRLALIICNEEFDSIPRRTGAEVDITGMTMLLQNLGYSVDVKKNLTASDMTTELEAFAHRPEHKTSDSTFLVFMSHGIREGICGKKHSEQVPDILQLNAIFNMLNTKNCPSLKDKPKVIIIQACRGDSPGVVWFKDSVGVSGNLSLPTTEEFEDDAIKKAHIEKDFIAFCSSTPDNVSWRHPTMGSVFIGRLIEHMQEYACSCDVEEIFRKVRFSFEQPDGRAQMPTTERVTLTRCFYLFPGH

[4] = target: T3, Caspase-3 (Homo sapiens, UniProt P42574); assay: Inhibition of human recombinant caspase 3 by fluorometric assay
T3 sequence (P42574 whole entry): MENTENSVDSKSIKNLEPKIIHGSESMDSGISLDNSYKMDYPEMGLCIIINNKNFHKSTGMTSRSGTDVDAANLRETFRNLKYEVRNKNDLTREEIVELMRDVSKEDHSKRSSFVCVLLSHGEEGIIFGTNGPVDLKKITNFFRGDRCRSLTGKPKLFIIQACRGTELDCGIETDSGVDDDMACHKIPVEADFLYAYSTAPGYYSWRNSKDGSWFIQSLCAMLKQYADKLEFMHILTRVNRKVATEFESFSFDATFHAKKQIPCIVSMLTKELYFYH

[5] = target: T4, Caspase-6 (Homo sapiens, UniProt P55212); assay: Inhibition of human caspase 6
T4 sequence (P55212 whole entry): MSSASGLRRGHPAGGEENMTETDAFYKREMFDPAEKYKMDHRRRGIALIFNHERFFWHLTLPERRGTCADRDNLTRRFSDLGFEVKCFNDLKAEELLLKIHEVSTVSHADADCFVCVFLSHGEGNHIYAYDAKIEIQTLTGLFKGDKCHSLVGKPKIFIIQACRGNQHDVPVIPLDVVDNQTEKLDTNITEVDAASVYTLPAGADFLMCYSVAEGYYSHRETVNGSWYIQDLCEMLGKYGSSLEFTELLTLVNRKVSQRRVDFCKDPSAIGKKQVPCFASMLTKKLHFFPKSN

[6] = target: T5, Caspase-7 (Homo sapiens, UniProt P55210); assay: Inhibition of human caspase 7
T5 sequence (P55210 whole entry): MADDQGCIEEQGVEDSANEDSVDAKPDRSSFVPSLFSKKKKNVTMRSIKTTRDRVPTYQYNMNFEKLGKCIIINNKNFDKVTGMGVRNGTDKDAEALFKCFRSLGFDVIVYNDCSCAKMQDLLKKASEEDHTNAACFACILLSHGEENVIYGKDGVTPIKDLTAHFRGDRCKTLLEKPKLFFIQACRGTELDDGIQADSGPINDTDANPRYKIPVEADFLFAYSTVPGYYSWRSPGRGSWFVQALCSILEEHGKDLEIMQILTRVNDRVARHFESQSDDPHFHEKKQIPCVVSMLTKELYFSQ

[7] = target: Caspase-8 (Homo sapiens, UniProt Q14790); assay: Inhibition of human caspase 8
Chain of Caspase-8 (Q14790 217-374 limits assumed): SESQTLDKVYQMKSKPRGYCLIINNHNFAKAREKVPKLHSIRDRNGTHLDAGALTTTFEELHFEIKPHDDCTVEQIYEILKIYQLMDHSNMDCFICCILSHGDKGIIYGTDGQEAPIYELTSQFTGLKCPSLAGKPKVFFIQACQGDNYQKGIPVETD
Chain of Caspase-8 (Q14790 385-479 limits assumed): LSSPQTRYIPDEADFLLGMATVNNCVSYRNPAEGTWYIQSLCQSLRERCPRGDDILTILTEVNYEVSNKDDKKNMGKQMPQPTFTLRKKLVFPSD

IC50 [1]: > 2000 nM
Structure (SMILES): O=C(O)CC(NC(=O)c1sccc1NC(=O)OCc1ccccc1)C(=O)CF (stereo not given)

IC50 [2]: 6 nM
IC50 [3]: 12 nM
IC50 [4]: 33 nM
IC50 [5]: 61 nM
IC50 [6]: 11 nM
IC50 [7]: 6 nM
Structure (SMILES): CC(C)[C@H](NC(=O)OCc1ccccc1)C(=O)Nc1ccccc1C(=O)NC(CC(=O)O)C(=O)CF (stereo not given in full)

IC50 [1]: 4000 nM
Structure (SMILES): O=C(O)CC(NC(=O)c1ccccc1NC(=O)OCc1ccccc1)C(=O)CF (stereo not given)

The next lines start with the compound.

Structure (SMILES): O=C(O)CN(C(=O)CF)C(=O)[C@H]1CCN1C(=O)OCc1ccccc1
IC50 [1]: 1700 nM

Structure (SMILES): O=C(O)CN(C(=O)CF)C(=O)[C@H]1CCCN1C(=O)OCc1ccccc1
IC50 [1]: > 2000 nM
